Experimental data: patent publication US4885310A, “Anti-fungal methods and agent” (Kern; Gerald N., priority 1985, dated 1989)

Columns and labels:
[1] = tested on: mycoses; settings: cited from earlier work
[2] = tested on: MA-104; assay: Cytotoxicity of docusate sodium in solutions free of serum, MA-104; assay type: cell-based, monkey; design: key: 0: Cells had normal morphology; 4+: > 90% of cells showed CTE; settings: 24 h, 37° C.
Protocol: (§1) The cell lines used to evaluate cytotoxicity of docusate sodium were MA-104 derived from monkey kidneys, HeLa derived from human uterine carcinoma and primary fibroblasts from human foreskin. The cells were grown to confluency in 60×15 mm dishes. The cell monolayers were washed free of growth medium and 5 ml of serum-less growth medium containing docusate sodium at various concentrations was added. The cultures were incubated 24 hours at 37° C. and the cells then examined microscopically for cytotoxic effects (CTE). Controls were done in the same manner except that they were not exposed to docusate sodium.
(§2) Table 1 lists the cytotoxicity of docusate sodium with regard to selected cell lines in cell culture.

[3] = tested on: HeLa; assay: Cytotoxicity of docusate sodium in solutions free of serum, HeLa; assay type: cell-based, human; design: key: 0: Cells had normal morphology; 4+: > 90% of cells showed CTE; settings: 24 h, 37° C.
Protocol: as §1, §2

[4] = tested on: primary fibroblasts from human foreskin; assay: Cytotoxicity of docusate sodium in solutions free of serum, foreskin fibroblasts; assay type: cell-based; design: key: 0: Cells had normal morphology; 4+: > 90% of cells showed CTE; settings: 24 h, 37° C.
Protocol: as §1, §2

[5] = tested on: MA-104; assay: Cytotoxicity of docusate sodium in solutions containing serum, MA-104; assay type: cell-based, monkey; design: key to cytotoxic effect (CTE): 0: Cells have normal morphology; 4+: > 90% of cells showed CTE.; ±c: less than 10% of cells showed CTE; settings: for cytotoxic effect (CTE): 24 h, MA-104
Protocol: as §1
(§3) The same procedure that was used for Example 8 was used for this example except that the medium used for growing the cells contained 2% by volume fetal calf serum.
(§4) Table 2 lists the cytotoxic effect of docusate sodium at various concentrations in selected cell lines in the cell cultures of this Example.

[6] = tested on: HeLa; assay: Cytotoxicity of docusate sodium in solutions containing serum, HeLa; assay type: cell-based, human; design: key: 0: Cells have normal morphology; 4+: > 90% of cells showed CTE.; ±c: less than 10% of cells showed CTE; settings: 2% fetal calf serum, 24 h
Protocol: as §1, §3, §4

[7] = tested on: foreskin fibroblast cells; assay: Cytotoxicity of docusate sodium in solutions containing serum, foreskin fibroblasts; assay type: cell-based, human; design: key: 0: Cells have normal morphology; 4+: > 90% of cells showed CTE.; ±c: less than 10% of cells showed CTE; settings: 2% fetal calf serum, 24 h
Protocol: as §1, §3, §4

[8] = tested on: Candida albicans; assay: Inhibition of the growth of Candida albicans in broth culture; assay type: cell-based; settings: TSB, 30° C.
Protocol: Candida albicans is a yeast and is the causative agent of thrush in humans and is a cause of vaginal infections, urinary tract infections, and infections at other body sites. The growth inhibition effects of docusate sodium on C. albicans are determined in broth culture using trypticase soy broth (TSB) which is a medium which supports growth of a wide variety of microorganisms. TSB was sterilized by autoclaving and filter sterilized docusate sodium in distilled water was added to the sterile TSB at the concentrations shown in Table 3. The cultures were inoculated and incubated at 30° C. for 72 hours. Growth in the cultures was checked at 24 hour intervals.

[9] = tested on: Scopulariopsis; assay: Inhibition of fungal growth on potato dextrose agar plates, Scopulariopsis; assay type: cell-based
Protocol: (§5) FIG. 1 is a photograph of fungal cultures of Scopulariopsis, Penicillium and Aspergillus treated with various concentrations of docusate sodium from 0 concentration (the control) to 2.0 mg/ml and incubated for five days at room temperature. The nature of fungal growth required that a different experimental approach from that of Example 10 be used to determine the growth inhibition effects of docusate sodium on fungi. For these experiments potato dextrose agar plates containing different concentrations of docusate sodium were inoculated in the center of the agar with Scopulariopsis, Penicillium and Aspergillus. The cultures were then sealed with […] brand film and incubated at room temperature for five days. Since growth could not be measured by absorbance visual comparisons were made. […] Similar tests were conducted with Mucor.

[10] = tested on: Penicillium; assay: Inhibition of fungal growth on potato dextrose agar plates, Penicillium; assay type: cell-based
Protocol: as §5

[11] = tested on: Aspergillus; assay: Inhibition of fungal growth on potato dextrose agar plates, Aspergillus; assay type: cell-based
Protocol: as §5

[12] = tested on: Mucor; assay: Inhibition of fungal growth, Mucor; assay type: cell-based; settings: all concentrations tested
Protocol: The nature of fungal growth required that a different experimental approach from that of Example 10 be used to determine the growth inhibition effects of docusate sodium on fungi. For these experiments potato dextrose agar plates containing different concentrations of docusate sodium were inoculated in the center of the agar with Scopulariopsis, Penicillium and Aspergillus. The cultures were then sealed with PARAFILM brand film and incubated at room temperature for five days. Since growth could not be measured by absorbance visual comparisons were made. […] The results to date indicate that docusate sodium is fungistatic. […] Similar tests were conducted with Mucor.

[13] = cited from earlier work
[14] = use as food additive and stool softening agent; cited from earlier work

C[C@@H]1[C@H](O)[C@@H](C)/C=C/C=C/C=C/C=C/C=C/C=C/C=C/[C@H](O[C@@H]2O[C@H](C)[C@@H](O)[C@H](N)[C@@H]2O)C[C@@H]2O[C@](O)(C[C@@H](O)C[C@@H](O)[C@H](O)CC[C@@H](O)C[C@@H](O)CC(=O)O[C@H]1C)C[C@H](O)[C@H]2C(=O)O [amphotericin B]
toxicity ([1]; in vivo): often exhibits some toxicity | effectiveness against superficial and cutaneous mycoses ([1]; superficial and cutaneous mycoses): not effective for the treatment of superficial and cutaneous mycoses | effectiveness against systemic mycoses ([1]; systemic mycoses): effective for the treatment of many, but not all, systemic mycoses

COC1=CC(=O)C[C@@H](C)[C@]12Oc1c(Cl)c(OC)cc(OC)c1C2=O [griseofulvin]
effectiveness against mycoses ([1]; requires prolonged administration of weeks or months): effective only for superficial and subcutaneous mycoses

CCCCC(CC)COC(=O)CC(C(=O)OCC(CC)CCCC)S(=O)(=O)O (centres unmarked) [docusate sodium, 1,4 bis(2-ethylhexyl) sodium sulfosuccinate]
toxicity (CTE) ([2]; 0.01 mg/ml): 0 | toxicity (CTE) ([2]; 0.05 mg/ml): 4+ (> 90% of cells showed CTE.) | toxicity (CTE) ([2]; 0.1 mg/ml): 4+ (> 90% of cells showed CTE.) | toxicity (CTE) ([2]; 0.2 mg/ml): 4+ (> 90% of cells showed CTE.) | toxicity (CTE) ([3]; 0.01 mg/ml): 0 | toxicity (CTE) ([3]; 0.05 mg/ml): 4+ (> 90% of cells showed CTE.) | toxicity (CTE) ([3]; 0.1 mg/ml): 4+ (> 90% of cells showed CTE.) | toxicity (CTE) ([3]; 0.2 mg/ml): 4+ (> 90% of cells showed CTE.) | toxicity (CTE) ([4]; 0.01 mg/ml): 0 | toxicity (CTE) ([4]; 0.05 mg/ml): 4+ (> 90% of cells showed CTE.) | toxicity (CTE) ([4]; 0.1 mg/ml): 4+ (> 90% of cells showed CTE.) | toxicity (CTE) ([4]; 0.2 mg/ml): 4+ (> 90% of cells showed CTE.) | cytotoxic effect (CTE) ([5]; 0.01 mg/ml, 2% fetal calf serum): 0 | cytotoxic effect (CTE) ([5]; 0.02 mg/ml, 2% fetal calf serum): 0 | cytotoxic effect (CTE) ([5]; 0.03 mg/ml, 2% fetal calf serum): 0 | cytotoxic effect (CTE) ([5]; 0.04 mg/ml, 2% fetal calf serum): 0 | effect of serum on cytotoxicity ([5]; 2% fetal calf serum vs serum-free, stated for the cells of Table 2): presence of serum reduced the cytotoxicity | relative sensitivity of MA-104 cells ([5]; 2% fetal calf serum, versus HeLa and foreskin fibroblast cells): less sensitive | cytotoxic effect (CTE) ([6]; 0.02 mg/ml): 0 | cytotoxic effect (CTE) ([6]; 0.03 mg/ml): ±c (less than 10% of cells showed CTE.) | cytotoxic effect (CTE) ([6]; 0.04 mg/ml): 4+ (> 90% of cells showed CTE.) | cytotoxic effect (CTE) ([7]; 0.01 mg/ml): 0 | cytotoxic effect (CTE) ([7]; 0.02 mg/ml): ±c (less than 10% of cells showed CTE.) | cytotoxic effect (CTE) ([7]; 0.03 mg/ml): 4+ (> 90% of cells showed CTE.) | cytotoxic effect (CTE) ([7]; 0.04 mg/ml): 4+ (> 90% of cells showed CTE.) | Growth recorded as absorbance at 540 nm ([8]; 0.06 mg/ml, 0 h): 0.185 | Growth recorded as absorbance at 540 nm ([8]; 0.06 mg/ml, 24 h): 0.610 | Growth recorded as absorbance at 540 nm ([8]; 0.06 mg/ml, 48 h): 1.10 | Growth recorded as absorbance at 540 nm ([8]; 0.06 mg/ml, 72 h): 0.920 | Growth recorded as absorbance at 540 nm ([8]; 0.12 mg/ml, 0 h): 0.230 | Growth recorded as absorbance at 540 nm ([8]; 0.12 mg/ml, 24 h): 0.440 | Growth recorded as absorbance at 540 nm ([8]; 0.12 mg/ml, 48 h): 0.700 | Growth recorded as absorbance at 540 nm ([8]; 0.12 mg/ml, 72 h): 0.950 | Growth recorded as absorbance at 540 nm ([8]; 0.25 mg/ml, 0 h): 0.220 | Growth recorded as absorbance at 540 nm ([8]; 0.25 mg/ml, 24 h): 0.345 | Growth recorded as absorbance at 540 nm ([8]; 0.25 mg/ml, 48 h): 0.600 | Growth recorded as absorbance at 540 nm ([8]; 0.25 mg/ml, 72 h): 0.720 | Growth recorded as absorbance at 540 nm ([8]; 0.5 mg/ml, 0 h): 0.240 | Growth recorded as absorbance at 540 nm ([8]; 0.5 mg/ml, 24 h): 0.315 | Growth recorded as absorbance at 540 nm ([8]; 0.5 mg/ml, 48 h): 0.420 | Growth recorded as absorbance at 540 nm ([8]; 0.5 mg/ml, 72 h): 0.730 | Growth recorded as absorbance at 540 nm ([8]; 1.0 mg/ml, 0 h): 0.290 | Growth recorded as absorbance at 540 nm ([8]; 1.0 mg/ml, 24 h): 0.310 | Growth recorded as absorbance at 540 nm ([8]; 1.0 mg/ml, 48 h): 0.450 | Growth recorded as absorbance at 540 nm ([8]; 1.0 mg/ml, 72 h): 0.610 | Growth recorded as absorbance at 540 nm ([8]; 2.0 mg/ml, 0 h): 0.320 | Growth recorded as absorbance at 540 nm ([8]; 2.0 mg/ml, 24 h): 0.470 | Growth recorded as absorbance at 540 nm ([8]; 2.0 mg/ml, 48 h): 0.620 | Growth recorded as absorbance at 540 nm ([8]; 2.0 mg/ml, 72 h): 0.780 | relative sensitivity of fungus ([9]; Scopulariopsis versus Penicillium): more sensitive | growth inhibition ([9]; all concentrations up to 2.0 mg/ml, five days, room temperature, Scopulariopsis): growth of fungi was inhibited at all concentrations | sensitivity of growing tips of fungal mycelia (microscopic examination) ([9]; stated for the fungal colonies of FIG. 1): growing tips of the fungal mycelia (filaments) are sensitive | fungistatic nature of effect ([9]; stated for the fungi of FIG. 1): fungistatic | relative sensitivity of fungus ([10]; Penicillium versus Aspergillus and Scopulariopsis): least sensitive | growth inhibition ([10]; all concentrations up to 2.0 mg/ml, five days, room temperature, Penicillium): growth of fungi was inhibited at all concentrations | relative sensitivity of fungus ([11]; Aspergillus versus Penicillium): more sensitive | growth inhibition ([11]; all concentrations up to 2.0 mg/ml, five days, room temperature, Aspergillus): growth of fungi was inhibited at all concentrations | growth inhibition [12]: growth was inhibited at all concentrations of docusate sodium tested | solubility in organic solvents ([13]; organic solvents such as alcohol): freely soluble | solubility in water ([13]; water): slowly soluble in water to a limited extent | systemic or local concentration on a cellular level [14]: do not provide a systemic or local concentration of from about 0.01 mg to about 0.2 mg of docusate sodium per ml on a cellular level
